Experimental data taken from DBAASP.
≈ marks a conversion by molar mass, not a printed value.

Tests used:
Test in all cases: ≥ marks a high value that may be exact or a test limit, other limits are often not marked, values filed in µg/mL are converted to µM
[1] = test system: Salmonella enterica subsp. enterica serovar Typhi
[2] = test system: Staphylococcus aureus ATCC 25923
[3] = test system: Escherichia coli ATCC 25922
[4] = test system: Pseudomonas aeruginosa ATCC 27853
Staphylococcus aureus = test system: Staphylococcus aureus
Pseudomonas aeruginosa = test system: Pseudomonas aeruginosa
Bacillus subtilis = test system: Bacillus subtilis
Enterobacter cloacae = test system: Enterobacter cloacae
Escherichia coli = test system: Escherichia coli
[5] = test system: Candida albicans ATCC 90028
[6] = test system: Pseudomonas aeruginosa 198
[7] = test system: Klebsiella pneumoniae ESBL 61962
Pseudomonas aeruginosa 9 = test system: Pseudomonas aeruginosa 9
[8] = test system: Klebsiella pneumoniae ESBL 63575
[9] = test system: Escherichia coli ESBL 63103
[10] = test system: Staphylococcus aureus C623
[11] = test system: Pseudomonas aeruginosa H1030
[12] = test system: Pseudomonas aeruginosa PAO1 H103
[13] = test system: Enterobacter cloacae 218R
[14] = test system: Escherichia coli ESBL 64771
[15] = test system: Stenotrophomonas maltophilia ATCC 13637
[16] = test system: Enterococcus faecalis W61950
[17] = test system: Pseudomonas aeruginosa LES400
[18] = test system: Enterococcus faecalis f43559
[19] = test system: Enterococcus faecium mic80
[20] = test system: Enterococcus faecalis ATCC 29212
[21] = test system: Pseudomonas aeruginosa 213
[22] = test system: Pseudomonas aeruginosa H1027
[23] = test system: Enterococcus faecium t62764
[24] = test system: Candida albicans ATCC 20032
[25] = test system: Bacillus subtilis ATCC 6633
[26] = test system: Malassezia sympodialis ATCC 42132
Escherichia coli ML-35p = test system: Escherichia coli ML-35p
[27] = test system: Staphylococcus aureus RN4220
[28] = test system: Candida albicans NCTC 3179
[29] = test system: Staphylococcus sp. BCRC 10451

## CC(C)C[C@H](NC(=O)[C@H](CCCCN)NC(=O)[C@H](CCCN=C(N)N)NC(=O)[C@H](Cc1ccccc1)NC(=O)[C@H](Cc1ccccc1)NC(=O)[C@H](CCCCN)NC(=O)[C@H](CCCCN)NC(=O)[C@H](Cc1ccccc1)NC(=O)[C@H](CCCN=C(N)N)NC(=O)[C@H](CCCCN)NC(=O)[C@@H](N)C(C)C)C(=O)N[C@@H](CCCCN)C(=O)N[C@@H](CCCCN)C(=O)N[C@@H](CO)C(N)=O [VKRFKKFFRKLKKS]
[1]
  MIC: 17.4 µM (≈ 32 µg/mL)
[2]
  MIC: 2.17 µM (≈ 4 µg/mL)
[3]
  MIC: 69.6 µM (≈ 128 µg/mL)
[4]
  MIC: 69.6 µM (≈ 128 µg/mL)
Staphylococcus aureus
  MIC: 69.6 µM (≈ 128 µg/mL)
Pseudomonas aeruginosa
  MIC: 17.4 µM (≈ 32 µg/mL)
Bacillus subtilis
  MIC: ≥ 34.8 µM
Enterobacter cloacae
  MIC: ≥ 139 µM
Escherichia coli
  MIC: 17.4 µM (≈ 32 µg/mL)
[5]
  MIC: ≥ 69.6 µM

## CC[C@H](C)[C@H](N)C(=O)N[C@@H](Cc1c[nH]c2ccccc12)C(=O)N[C@@H](Cc1c[nH]c2ccccc12)C(=O)N[C@@H](CCCCN)C(=O)N[C@@H](Cc1c[nH]c2ccccc12)C(=O)N[C@@H](CCCN=C(N)N)C(=O)N[C@@H](CCCN=C(N)N)C(=O)N[C@@H](Cc1c[nH]c2ccccc12)C(=O)N[C@H](C(=O)O)C(C)C [IWWKWRRWV]
[6]
  MIC: 6 µM (≈ 8.5 µg/mL)
[2]
  MIC: 1.48 µM (≈ 2.1 µg/mL)
[7]
  MIC: ≥ 48 µM
Pseudomonas aeruginosa 9
  MIC: 24 µM (≈ 34 µg/mL)
[8]
  MIC: 6 µM (≈ 8.5 µg/mL)
[9]
  MIC: 12 µM (≈ 17 µg/mL)
[10]
  MIC: 1.48 µM (≈ 2.1 µg/mL)
[11]
  MIC: 24 µM (≈ 34 µg/mL)
[12]
  MIC: 2.97 µM (≈ 4.2 µg/mL)
[13]
  MIC: 2.97 µM (≈ 4.2 µg/mL)
[14]
  MIC: 2.97 µM (≈ 4.2 µg/mL)
[15]
  MIC: 0.777 µM (≈ 1.1 µg/mL)
[16]
  MIC: 24 µM (≈ 34 µg/mL)
[17]
  MIC: 6 µM (≈ 8.5 µg/mL)
[18]
  MIC: 24 µM (≈ 34 µg/mL)
[19]
  MIC: 2.97 µM (≈ 4.2 µg/mL)
[20]
  MIC: 12 µM (≈ 17 µg/mL)
[21]
  MIC: 24 µM (≈ 34 µg/mL)
[22]
  MIC: 2.97 µM (≈ 4.2 µg/mL)
[23]
  MIC: 1.48 µM (≈ 2.1 µg/mL)

## CC[C@H](C)[C@H](NC(=O)CN)C(=O)NCC(=O)NCC(=O)N[C@@H](C)C(=O)N[C@@H](CC(C)C)C(=O)N[C@@H](CC(C)C)C(=O)N[C@@H](CO)C(=O)N[C@@H](C)C(=O)NCC(=O)N[C@@H](CCCCN)C(=O)N[C@@H](CO)C(=O)N[C@@H](C)C(=O)N[C@@H](CC(C)C)C(=O)N[C@@H](CCCCN)C(=O)NCC(=O)N[C@@H](CC(C)C)C(=O)N[C@@H](C)C(=O)N[C@@H](CCCCN)C(=O)NCC(=O)N[C@@H](CC(C)C)C(=O)N[C@@H](C)C(=O)N[C@@H](CCC(=O)O)C(=O)N[C@@H](Cc1cnc[nH]1)C(=O)N[C@@H](CC(C)C)C(N)=O [GIGGALLSAGKSALKGLAKGLAEHL]
[2]
  MIC: 8.06 µM (≈ 18.8 µg/mL)
[24]
  MIC: ≥ 42.9 µM
[3]
  MIC: > 42.9 µM
[25]
  MIC: ≥ 42.9 µM

## NC(=O)[C@H](CCCN=C(N)N)NC(=O)[C@H](CCCN=C(N)N)NC(=O)[C@H](CCCN=C(N)N)NC(=O)[C@H](CCCN=C(N)N)NC(=O)[C@H](CCCN=C(N)N)NC(=O)[C@H](CCCN=C(N)N)NC(=O)[C@H](CCCN=C(N)N)NC(=O)[C@H](CCCN=C(N)N)NC(=O)[C@@H](N)CCCN=C(N)N [RRRRRRRRR]
[26]
  MIC: 9.83 µM (≈ 14 µg/mL)
Escherichia coli ML-35p
  MIC: ≥ 100 µM
[27]
  MIC: ≥ 100 µM

## CC[C@H](C)[C@H](NC(=O)[C@H](CCCCN)NC(=O)[C@@H](NC(=O)[C@@H](NC(=O)[C@H](CC(N)=O)NC(=O)[C@H](CCC(=O)O)NC(=O)[C@H](CCC(=O)O)NC(=O)[C@H](CCC(N)=O)NC(=O)[C@@H](N)CCC(=O)O)C(C)C)C(C)C)C(=O)N[C@@H](CCC(N)=O)C(=O)N[C@@H](C)C(=O)N[C@@H](Cc1ccccc1)C(=O)N[C@@H](Cc1c[nH]c2ccccc12)C(=O)N[C@@H](CCCCN)C(=O)NCC(=O)N[C@@H](Cc1ccc(O)cc1)C(=O)N[C@@H](CCCCN)C(=O)N[C@@H](CCC(N)=O)C(=O)N[C@@H](CCCN=C(N)N)C(=O)N[C@@H](CCCCN)C(=O)N[C@@H](CCC(=O)O)C(=O)N[C@@H](Cc1ccc(O)cc1)C(=O)N[C@@H](CCSC)C(=O)O [EQEENVVKIQAFWKGYKQRKEYM]
[28]
  MIC: 28.3 µM (≈ 83 µg/mL)
[2]
  MIC: 32.1 µM (≈ 94 µg/mL)
[3]
  MIC: 2.15 µM (≈ 6.3 µg/mL)

## CC[C@H](C)[C@H](NC(=O)[C@H](CCCN=C(N)N)NC(=O)[C@H](C)NC(=O)[C@H](CC(C)C)NC(=O)[C@@H](N)CCCN=C(N)N)C(=O)N[C@H](C(=O)N[C@H](C(=O)N[C@H](C(=O)N[C@@H](CCCN=C(N)N)C(=O)N[C@H](C(=O)N[C@@H](C)C(=O)N[C@@H](CCCN=C(N)N)C(=O)O)C(C)C)[C@@H](C)CC)C(C)C)C(C)C [RLARIVVIRVAR]
[6]
  MIC: ≥ 47.1 µM
[2]
  MIC: 12 µM (≈ 17 µg/mL)
[7]
  MIC: ≥ 95 µM
Pseudomonas aeruginosa 9
  MIC: ≥ 95 µM
[8]
  MIC: ≥ 95 µM
[9]
  MIC: 12 µM (≈ 17 µg/mL)
[10]
  MIC: 12 µM (≈ 17 µg/mL)
[11]
  MIC: ≥ 47.1 µM
[12]
  MIC: 23.9 µM (≈ 34 µg/mL)
[13]
  MIC: 12 µM (≈ 17 µg/mL)
[14]
  MIC: 12 µM (≈ 17 µg/mL)
[15]
  MIC: 1.48 µM (≈ 2.1 µg/mL)
[16]
  MIC: 23.9 µM (≈ 34 µg/mL)
[17]
  MIC: ≥ 47.1 µM
[18]
  MIC: 23.9 µM (≈ 34 µg/mL)
[19]
  MIC: 5.91 µM (≈ 8.4 µg/mL)
[20]
  MIC: 5.91 µM (≈ 8.4 µg/mL)
[21]
  MIC: ≥ 95 µM
[22]
  MIC: 5.91 µM (≈ 8.4 µg/mL)
[23]
  MIC: 1.48 µM (≈ 2.1 µg/mL)

## CC[C@H](C)[C@H](NC(=O)CN)C(=O)NCC(=O)NCC(=O)N[C@@H](C)C(=O)N[C@@H](CC(C)C)C(=O)N[C@@H](CC(C)C)C(=O)N[C@@H](CO)C(=O)N[C@@H](C)C(=O)NCC(=O)N[C@@H](CCCCN)C(=O)N[C@@H](C)C(=O)N[C@@H](C)C(=O)N[C@@H](CC(C)C)C(=O)N[C@@H](CCCCN)C(=O)NCC(=O)N[C@@H](CC(C)C)C(=O)N[C@@H](C)C(=O)N[C@@H](CCCCN)C(=O)N[C@H](C(=O)N[C@@H](CC(C)C)C(=O)N[C@H](C(N)=O)C(C)C)C(C)C [GIGGALLSAGKAALKGLAKVLV]
[2]
  MIC: 4.68 µM (≈ 9.4 µg/mL)
[24]
  MIC: 9.37 µM (≈ 18.8 µg/mL)
[3]
  MIC: 18.7 µM (≈ 37.5 µg/mL)
[25]
  MIC: 4.68 µM (≈ 9.4 µg/mL)

## CC[C@H](C)[C@H](NC(=O)[C@H](CCCCN)NC(=O)[C@@H]1CCCN1C(C)=O)C(=O)N[C@H](C(=O)N[C@@H](CO)C(=O)N[C@@H](CO)C(=O)N1CCC[C@H]1C(=O)N[C@@H](CC(C)C)C(=O)N[C@@H](Cc1ccccc1)C(=O)N[C@@H](CCCCN)C(=O)N[C@H](C(=O)N[C@@H](CC(C)C)C(=O)N[C@@H](CC(C)C)C(=O)N[C@@H](CO)C(=O)N[C@@H](C)C(=O)N[C@H](C(=O)NCC(=O)N[C@@H](CO)C(=O)N[C@@H](C)C(=O)N[C@@H](CC(C)C)C(=O)N[C@@H](CO)C(=O)N[C@@H](CO)C(=O)N[C@@H](CO)C(=O)NCC(=O)NCC(=O)N[C@@H](CCC(N)=O)C(=O)N[C@@H](CCC(=O)O)C(N)=O)C(C)C)[C@@H](C)O)[C@@H](C)CC [PKIISSPLFKTLLSAVGSALSSSGGQE]
[29]
  MIC: ≥ 37.4 µM
